Source: US20150065524A1, “KINASE INHIBITOR POLYMORPHS” (Intellikine LLC, priority 2011, published 2015)

How the values were obtained:
Assay type in all cases: physicochemical
[1] = Stability testing: storage at 40° C./75% RH or 25° C./97% RH, reanalysis by XRPD; settings: for Stability at 40° C./75% RH: salts of Formula I, salt screening; for Stability at 40° C./75% RH, reanalysis by XRPD: stored at 40° C./75% RH, after 7 days, 21 days and 35 days; for Solid form by XRPD after storage at 40° C./75% RH: 7 days, samples of entries 38, 39, 41, 42; for Solid form after storage at 40° C./75% relative humidity: 8 days storage
Method: A sample of J00439 was stored at 40° C./75% RH. […] Thus this solid form (which will be referred to as Form A) was stable to accelerated stability testing conditions. Note that some variations in XRPD peak intensity were observed over time.
Samples of entries 38, 39, 41, and 42 were stored at 40° C./75% RH. […]

[2] = Gravimetric Vapour Sorption (GVS); settings: for Solid form by XRPD after the GVS experiment: material recovered after GVS; for Weight lost during the first sorption cycle (GVS): from 40 to 90% RH
Text: There was no hysteresis. The material is non-hygroscopic.
The sample was non-hygroscopic, with only 0.16% weight gain in the first sorption cycle.

[3] = Drying of the solids under vacuum, reanalysis by XRPD; settings: for Solid form after drying: vacuum oven at 40° C. overnight, XRPD and 1H NMR
Method: A sample of each solid was dried in a vacuum oven at 40° C. overnight, then the samples were reanalysed by XRPD and ^1H NMR.
Approximately 20 mg of compound of Formula I (Form A) were weighed into vials, and 150 microliters of solvent system were added. The vials were agitated at 50° C., 5° C., or cycled between room temperature and 50° C. for 4 to 5 days. Solids were isolated by filtration and characterized by XRPD and thermal analysis. From acetone/5% water at 5° C., a hydrate was isolated (see FIGS. 15 and 16). […] From dimethylacetamide (DMA) cycled between room temperature and 50° C. for 5 days, a solvate was isolated (see FIGS. 17 and 18). […] Inclusion of 10% or more water with DMA prevented formation of DMA solvate.

Heating to about 100° C. = assay: Heating to about 100° C.
[4] = Stability testing: storage at 40° C./75% RH or 25° C./97% RH, reanalysis by XRPD; settings: 8 days storage

## 1,2-Ethane disulfonic acid
[1]
  Stability at 40° C./75% RH: Stable for 7 days

## Ethane sulfonic acid
[1]
  Stability at 40° C./75% RH: Deliquescent

## Maleic acid
[1]
  Stability at 40° C./75% RH: Stable for 7 days

## CC(C)n1nc(-c2ccc3oc(N)nc3c2)c2c(N)ncnc21 [Form A, 5-(4-amino-1-isopropyl-1H-pyrazolo[3,4-d]pyrimidin-3-yl)benzo[d]oxazol-2-Amine]
[1]
  Stability at 40° C./75% RH, reanalysis by XRPD: stable
[1]; listed as J00439
  Stability at 40° C./75% RH, reanalysis by XRPD: still pattern A
[2]
  Hygroscopicity by GVS: non-hygroscopic
  Solid form by XRPD after the GVS experiment: still pattern A
[2]; whole GVS experiment
  GVS weight change over the whole experiment: 0.1%

## Methane sulfonic acid
[1]
  Stability at 40° C./75% RH: Deliquescent

## CC(C)n1nc(-c2ccc3oc(N)nc3c2)c2c(N)ncnc21 [Form B]
[3]
  Solid form after drying: only partially desolvated
[1]
  Solid form by XRPD after storage at 40° C./75% RH: turned into Form A
[2]; first sorption cycle
  Weight lost during the first sorption cycle (GVS): 28 % wt
[2]
  Solid form by XRPD after the GVS experiment: desolvated to Form A

## CC(C)n1nc(-c2ccc3oc(N)nc3c2)c2c(N)ncnc21 [DMA solvate]
[1]
  Solid form after storage at 40° C./75% relative humidity: converted to Form A
Heating to about 100° C.
  Solid form after heating: converted to Form A
[4]
  Solid form after storage at 25° C./97% relative humidity: converted to Form A

## CC(C)n1nc(-c2ccc3oc(N)nc3c2)c2c(N)ncnc21 [Form E]
[3]
  Solid form after drying: desolvated to Form A
[1]
  Solid form by XRPD after storage at 40° C./75% RH: turned into Form A
[2]; first sorption cycle
  Weight lost during the first sorption cycle (GVS): 28 % wt
[2]
  Solid form by XRPD after the GVS experiment: turned to Form A

## CC(C)n1nc(-c2ccc3oc(N)nc3c2)c2c(N)ncnc21 [Form C]
[3]
  Solid form after drying: stable on drying
[1]
  Solid form by XRPD after storage at 40° C./75% RH: still of Form C
[2]
  Hygroscopicity by GVS: non-hygroscopic
  Solid form by XRPD after the GVS experiment: still Form C
[2]; between 90 and 0% RH
  Weight loss on desorption (GVS): 0.38%
[2]; first sorption cycle
  Weight gain in the first sorption cycle (GVS): 0.16%

## Cc1ccc(S(=O)(=O)O)cc1 [p-Toluene sulfonic acid]
[1]
  Stability at 40° C./75% RH: Changes pattern after 3 days,

## CC(C)n1nc(-c2ccc3oc(N)nc3c2)c2c(N)ncnc21 [hydrate]
[3]; vacuum drying
  Solid form after vacuum drying: converted to Form A
[1]
  Solid form after storage at 40° C./75% relative humidity: converted to Form A
[2]
  Solid form by XRPD after the GVS experiment: converted to Form A
Heating to about 100° C.
  Solid form after heating: converted to Form A
[4]
  Solid form after storage at 25° C./97% relative humidity: converted to Form A
